According to patent US20040265984A1, “Methods of growing crystals of free, antibiotic-complexed, and substrate-complexed large ribosomal subunits, and methods of rationally designing or identifying antibiotics using structure coordinate data derived from such crystals” (priority 2001, published 2004):
{Puro} = puromycin of the RNA

Key:
[1] = tested on: D50S; experiment: X-ray crystallography of D50S-ligand complex crystals (co-crystallization or soaking); format: binding, D. radiodurans; conditions: result in words, from complex crystals and electron-density maps
Description: Growth of D50S crystals: D. radiodurans LRSs were isolated, and crystals of D50S belonging to the space-group […] were grown as described in Example 1, above. Co-crystallization of D50S with antibiotics was carried out in the presence of 0.8-3.5 mM of the antibiotics chloramphenicol, clindamycin, erythromycin, and roxithromycin. Co-crystallization of D50S with clarithromycin was achieved by soaking D50S crystals in solutions containing 0.01 mM of this antibiotic.
X-ray diffraction: Data were collected at 85 K from shock-frozen crystals with a bright SR beam at ID19 at APS/ANL, ID14/2 and 4 at ESRF/EMBL, and at BW6 at DESY. Data were recorded on MAR345, Quantum 4, or APS-CCD detectors and processed with HKL2000 (Otwinowski, Z. and Minor, W., 1997. Macromolecular Crystallography, Pt A 276, 307).
Placements and refinement: The 3.1 Å structure of D50S described in Example 1, above, was refined against the structure factor amplitudes of each of the antibiotic-D50S complexes, using rigid body refinement as implemented in CNS (Brunger, A. T. et al., 1998. Acta Crystallographica Section D-Biological Crystallography 54, 905). SigmaA-weighted difference maps were used for the initial manual placement of the antibiotics. Each of the D50S-antibiotic models was further refined using REFMAC software (Murshudov, G. N. et al., 1999. Acta Cryst section D55, 247). For the calculation of free R-factor a subset of reflections (10% of the data) was omitted from the refinement. The structure coordinates of the antibiotic-D50S complexes were submitted to the PDB under accession numbers 1JZX, 1JZY, 1JZZ, 1K00, and 1K01.
Crystallization: Crystals of the large ribosomal subunit of D. radiodurans (D50S) were generated as described in Example 1 above (Harms J. et al., 2001. Cell 107, 679-688; Schlüenzen et al., 2001. Nature 413, 814-821). […]
X-ray diffraction: Data were collected at 85 K from shock-frozen crystals using a synchrotron radiation beam at ID 19 at Argonne Photon Source/Argonne National Laboratory (APS/ANL) and ID14/2, ID14/4 at the European Synchrotron Radiation Facility/European Molecular Biology Laboratory (ESRF/EMBL). Data were recorded on Quantum 4 or APS-CCD detectors and processed with HKL2000 (Otwinowski, Z. and Minor, W., 1997. Macromolecular Crystallography Pt A. 276, 307) and the CCP4 suite (Bailey, S., 1994. Acta Cryst D. 50, 760).
Localization and refinement: The 3.1 Å structure of D50S (PDB accession code 1LNR) was refined against the structure factor amplitudes of each of the two D50S-antibiotic complexes, using rigid body refinement as implemented in CNS (Brunger, A. T. et al., 1998. Acta Crystallographica Section D-Biological Crystallography 54, 905-921). […] The positions of the antibiotics were readily determined from sigmaA-weighted difference maps. […]

[2] = tested on: ribosomes; conditions: cited from earlier work; for binding to the ribosome: result in words
[3] = tested on: E. coli; conditions: U/U at 23S rRNA positions C803DR/C1773DR; cited from earlier work
[4] = tested on: Heliobacter pylori; conditions: Heliobacter pylori (U/U); cited from earlier work
[5] = tested on: Haemophilus influenzae; conditions: Haemophilus influenzae (A/C); cited from earlier work
[6] = tested on: ribosomes; conditions: cited from earlier work

For CSC[S@+]([O-])C[C@H](CO)NC(=O)/C=C/c1c(C)[nH]c(=O)[nH]c1=O [sparsomycin], the “binding to D50S” value [1] is given as “almost quantitative binding” and the “binding to the ribosome” value [2] is given as “weak binding”.
For COc1ccc(C[C@H](N)C(=O)N[C@H]2[C@@H](O)[C@H](n3cnc4c(N(C)C)ncnc43)O[C@@H]2CO)cc1 [Puromycin], the “binding to the ribosome” value [2] is given as “binds weakly”.
In the case of CC[C@H]1OC(=O)[C@H](C)C(=O)[C@H](C)[C@@H](O[C@@H]2O[C@H](C)C[C@H](N(C)C)[C@H]2O)[C@](C)(OCC=Cc2cnc3ccccc3c2)C[C@@H](C)C(=O)[C@H](C)[C@H]2NC(=O)O[C@@]21C [ABT-773], the “binding to D50S” value [1] is given as “high affinity”, the “susceptibility to ABT-773” value [3] is given as “equally susceptible” and the “susceptibility to ABT-773” value [4] is given as “equally susceptible”. For the same compound, the “susceptibility to ABT-773” value [5] was “equally susceptible”.
In the case of CC[C@H]1OC(=O)[C@H](C)[C@@H](O[C@H]2C[C@@](C)(OC)[C@@H](O)[C@H](C)O2)[C@H](C)[C@@H](O[C@@H]2O[C@H](C)C[C@H](N(C)C)[C@H]2O)[C@](C)(O)C[C@@H](C)C(=O)[C@H](C)[C@@H](O)[C@]1(C)O [erythromycin], the “length of peptides produced by erythromycin-bound ribosomes” value [6] is listed as “up to 8 residues”.
In the case of “ACCP: puromycin-coupled RNA molecule having the sequence 5′-ACC-Puro; substrate analog mimicking the CCA 3′ end of the tRNA acceptor stem (RNA, 3' {Puro}, backbone not given here)”, the “binding to D50S” value [1] is reported as “bind well”.
For CC[C@H]1OC(=O)[C@H](C)[C@@H](O[C@H]2C[C@@](C)(OC)[C@@H](O)[C@H](C)O2)[C@H](C)[C@@H](O[C@@H]2O[C@H](C)C[C@H](N(C)C)[C@H]2O)[C@](C)(O)C[C@@H](C)CN(C)[C@H](C)[C@@H](O)[C@]1(C)O [azithromycin, 9-deoxy-9A-methyl-9A-aza-9A-homoerythromycin], the “binding to D50S” value [1] was “high affinity”.
In the case of CC[C@H]1OC(=O)[C@H](C)C(=O)[C@H](C)[C@@H](O[C@@H]2O[C@H](C)C[C@H](N(C)C)[C@H]2O)[C@](C)(OC)C[C@@H](C)C(=O)[C@H](C)[C@@H](O)[C@]1(C)O [RU56006], the Kd ([2]; compared with erythromycin) is given as “same order of magnitude as that of erythromycin”.
